In the kinase profiling compilation of Christmann-Franck et al. (2016):

Columns and labels:
Experiment in all cases: radiometric filter-binding kinase assay
CLK2 (human) = CLK2 (human) (UniProt P49760)
RPS6KA3 KD1 KD2 (human) = RPS6KA3 KD1 KD2 (human) (UniProt P51812)
PRKCA (human) = PRKCA (human) (UniProt P17252)
TAOK1 (human) = TAOK1 (human) (UniProt Q7L7X3)
PIM1 (human) = PIM1 (human) (UniProt P11309)
MAPK15 (human) = MAPK15 (human) (UniProt Q8TD08)
TLK1 (human) = TLK1 (human) (UniProt Q9UKI8)
MAP2K2 (human) = MAP2K2 (human) (UniProt P36507)
CSK (human) = CSK (human) (UniProt P41240)
MAPKAPK3 (human) = MAPKAPK3 (human) (UniProt Q16644)
PLK1 (human) = PLK1 (human) (UniProt P53350)
MARK4 (human) = MARK4 (human) (UniProt Q96L34)
AURKB (human) = AURKB (human) (UniProt Q96GD4)
YES1 (human) = YES1 (human) (UniProt P07947)
PIM3 (human) = PIM3 (human) (UniProt Q86V86)
RPS6KA1 KD1 KD2 (human) = RPS6KA1 KD1 KD2 (human) (UniProt Q15418)
MAP3K1 (human) = MAP3K1 (human) (UniProt Q13233)
[1] = test system: RPS6KB1 (human), P23443 [T412E]
TEK (human) = TEK (human) (UniProt Q02763)
[2] = test system: PAK2 (human), Q13177 [T402E]
PHKG1 (human) = PHKG1 (human) (UniProt Q16816)
EPHB4 (human) = EPHB4 (human) (UniProt P54760)
ZAP70 (human) = ZAP70 (human) (UniProt P43403)
DYRK1A (human) = DYRK1A (human) (UniProt Q13627)
NEK6 (human) = NEK6 (human) (UniProt Q9HC98)
MINK1 (human) = MINK1 (human) (UniProt Q8N4C8)
MAPK11 (human) = MAPK11 (human) (UniProt Q15759)
NEK2 (human) = NEK2 (human) (UniProt P51955)

Chain of MINK1 (human) (Q8N4C8 whole entry, looked up): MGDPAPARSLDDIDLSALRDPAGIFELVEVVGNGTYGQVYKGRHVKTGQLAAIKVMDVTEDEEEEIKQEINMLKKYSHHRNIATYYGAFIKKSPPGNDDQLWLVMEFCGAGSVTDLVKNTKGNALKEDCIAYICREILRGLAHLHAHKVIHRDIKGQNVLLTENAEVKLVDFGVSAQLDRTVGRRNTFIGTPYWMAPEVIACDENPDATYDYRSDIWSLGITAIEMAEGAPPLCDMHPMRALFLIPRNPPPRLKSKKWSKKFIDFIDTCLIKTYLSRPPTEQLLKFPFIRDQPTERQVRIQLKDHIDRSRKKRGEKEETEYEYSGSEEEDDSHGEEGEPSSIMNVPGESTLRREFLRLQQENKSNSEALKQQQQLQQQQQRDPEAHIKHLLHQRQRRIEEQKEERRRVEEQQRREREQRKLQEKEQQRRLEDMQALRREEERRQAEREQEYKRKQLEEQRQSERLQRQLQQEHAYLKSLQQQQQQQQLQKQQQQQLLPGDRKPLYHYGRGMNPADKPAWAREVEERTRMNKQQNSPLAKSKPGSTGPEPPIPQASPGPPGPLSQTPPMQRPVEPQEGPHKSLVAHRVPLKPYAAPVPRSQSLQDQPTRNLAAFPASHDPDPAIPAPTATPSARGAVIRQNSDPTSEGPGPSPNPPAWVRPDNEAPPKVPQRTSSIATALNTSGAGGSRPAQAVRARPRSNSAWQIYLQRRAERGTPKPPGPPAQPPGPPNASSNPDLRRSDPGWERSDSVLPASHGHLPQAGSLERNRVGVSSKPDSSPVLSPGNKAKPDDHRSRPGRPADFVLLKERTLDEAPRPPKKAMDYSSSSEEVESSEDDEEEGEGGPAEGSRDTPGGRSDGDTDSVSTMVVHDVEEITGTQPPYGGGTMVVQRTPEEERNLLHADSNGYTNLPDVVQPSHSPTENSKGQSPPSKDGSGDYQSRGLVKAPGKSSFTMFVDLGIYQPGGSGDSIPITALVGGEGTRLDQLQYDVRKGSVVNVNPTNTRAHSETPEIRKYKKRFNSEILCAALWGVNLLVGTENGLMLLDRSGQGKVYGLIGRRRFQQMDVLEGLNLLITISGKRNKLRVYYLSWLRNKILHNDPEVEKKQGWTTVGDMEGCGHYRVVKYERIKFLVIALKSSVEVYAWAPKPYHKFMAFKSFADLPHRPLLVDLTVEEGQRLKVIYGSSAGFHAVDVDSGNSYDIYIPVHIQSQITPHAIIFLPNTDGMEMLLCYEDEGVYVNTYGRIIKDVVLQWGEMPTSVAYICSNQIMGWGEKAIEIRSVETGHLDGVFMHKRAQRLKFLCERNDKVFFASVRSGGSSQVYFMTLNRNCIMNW
Chain of TAOK1 (human) (Q7L7X3 whole entry, looked up): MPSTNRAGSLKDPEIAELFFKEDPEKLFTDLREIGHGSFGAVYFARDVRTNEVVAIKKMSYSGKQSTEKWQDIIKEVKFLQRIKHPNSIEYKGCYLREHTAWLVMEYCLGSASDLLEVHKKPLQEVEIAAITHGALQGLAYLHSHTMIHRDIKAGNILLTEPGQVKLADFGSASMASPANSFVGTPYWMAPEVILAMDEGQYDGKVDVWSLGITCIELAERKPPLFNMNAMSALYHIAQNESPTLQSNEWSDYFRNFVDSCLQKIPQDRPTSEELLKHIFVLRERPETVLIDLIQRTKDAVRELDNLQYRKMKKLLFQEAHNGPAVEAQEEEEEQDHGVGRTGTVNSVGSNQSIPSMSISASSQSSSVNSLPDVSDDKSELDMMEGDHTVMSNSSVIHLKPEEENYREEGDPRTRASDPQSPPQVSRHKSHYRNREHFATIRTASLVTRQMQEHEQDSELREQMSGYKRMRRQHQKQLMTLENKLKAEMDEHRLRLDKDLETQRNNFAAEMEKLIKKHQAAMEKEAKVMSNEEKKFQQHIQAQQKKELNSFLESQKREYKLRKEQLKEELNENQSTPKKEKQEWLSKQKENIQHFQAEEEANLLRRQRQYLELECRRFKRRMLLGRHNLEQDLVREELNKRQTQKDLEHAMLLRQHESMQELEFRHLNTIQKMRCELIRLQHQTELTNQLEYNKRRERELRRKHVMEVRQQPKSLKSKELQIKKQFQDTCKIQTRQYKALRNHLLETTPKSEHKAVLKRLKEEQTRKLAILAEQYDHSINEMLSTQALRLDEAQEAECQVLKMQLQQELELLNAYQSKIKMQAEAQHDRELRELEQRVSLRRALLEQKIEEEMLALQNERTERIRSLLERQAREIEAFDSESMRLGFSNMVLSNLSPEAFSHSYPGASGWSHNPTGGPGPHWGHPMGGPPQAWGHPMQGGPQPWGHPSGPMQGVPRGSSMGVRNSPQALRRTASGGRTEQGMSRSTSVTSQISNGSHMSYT
Chain of AURKB (human) (Q96GD4 whole entry, looked up): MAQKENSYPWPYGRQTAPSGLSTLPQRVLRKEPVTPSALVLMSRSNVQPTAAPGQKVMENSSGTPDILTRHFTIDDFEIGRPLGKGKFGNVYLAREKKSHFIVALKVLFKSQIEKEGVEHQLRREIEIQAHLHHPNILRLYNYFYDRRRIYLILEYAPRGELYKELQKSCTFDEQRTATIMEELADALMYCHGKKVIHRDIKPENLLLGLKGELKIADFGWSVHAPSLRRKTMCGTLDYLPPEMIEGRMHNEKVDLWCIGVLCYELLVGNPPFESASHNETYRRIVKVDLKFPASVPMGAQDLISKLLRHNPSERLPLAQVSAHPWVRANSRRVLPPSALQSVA
Chain of MAPK11 (human) (Q15759 whole entry, looked up): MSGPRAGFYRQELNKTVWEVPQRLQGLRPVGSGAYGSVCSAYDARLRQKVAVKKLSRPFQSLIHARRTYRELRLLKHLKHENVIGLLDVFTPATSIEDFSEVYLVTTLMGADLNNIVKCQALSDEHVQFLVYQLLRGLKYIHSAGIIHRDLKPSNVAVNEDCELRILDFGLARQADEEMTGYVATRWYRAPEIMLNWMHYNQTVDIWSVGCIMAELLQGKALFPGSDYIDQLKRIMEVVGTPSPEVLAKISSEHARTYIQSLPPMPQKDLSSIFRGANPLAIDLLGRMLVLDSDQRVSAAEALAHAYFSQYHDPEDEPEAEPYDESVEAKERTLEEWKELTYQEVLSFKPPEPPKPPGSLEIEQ
Chain of ZAP70 (human) (P43403 whole entry, looked up): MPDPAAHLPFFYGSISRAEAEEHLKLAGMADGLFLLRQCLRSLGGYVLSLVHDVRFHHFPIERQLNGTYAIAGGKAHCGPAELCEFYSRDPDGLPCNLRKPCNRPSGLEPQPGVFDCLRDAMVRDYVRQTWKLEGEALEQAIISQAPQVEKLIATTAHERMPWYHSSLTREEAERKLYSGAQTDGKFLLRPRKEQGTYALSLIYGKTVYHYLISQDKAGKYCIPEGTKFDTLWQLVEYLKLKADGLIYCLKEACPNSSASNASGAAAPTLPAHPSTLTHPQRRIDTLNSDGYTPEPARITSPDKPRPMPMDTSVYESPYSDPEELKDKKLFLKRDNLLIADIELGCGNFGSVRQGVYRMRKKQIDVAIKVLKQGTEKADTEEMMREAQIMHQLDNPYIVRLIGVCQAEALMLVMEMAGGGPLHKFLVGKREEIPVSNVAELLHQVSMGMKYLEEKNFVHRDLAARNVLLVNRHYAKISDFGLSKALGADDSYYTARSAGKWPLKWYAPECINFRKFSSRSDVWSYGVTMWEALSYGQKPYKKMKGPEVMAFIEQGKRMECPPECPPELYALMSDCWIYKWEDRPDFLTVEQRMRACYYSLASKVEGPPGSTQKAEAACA
Chain of PHKG1 (human) (Q16816 whole entry, looked up): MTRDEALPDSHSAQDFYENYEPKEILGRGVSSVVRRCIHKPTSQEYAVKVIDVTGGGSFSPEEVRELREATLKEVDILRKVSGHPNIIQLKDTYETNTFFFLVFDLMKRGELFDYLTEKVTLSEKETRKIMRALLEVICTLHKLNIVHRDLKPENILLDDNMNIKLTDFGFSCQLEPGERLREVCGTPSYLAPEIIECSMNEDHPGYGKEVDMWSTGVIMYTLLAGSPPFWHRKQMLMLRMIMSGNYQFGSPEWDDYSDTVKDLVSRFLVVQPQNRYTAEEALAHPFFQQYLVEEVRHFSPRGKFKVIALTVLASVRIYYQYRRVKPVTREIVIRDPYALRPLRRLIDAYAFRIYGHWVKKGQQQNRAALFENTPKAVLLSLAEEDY
Chain of PIM1 (human) (P11309 whole entry, looked up): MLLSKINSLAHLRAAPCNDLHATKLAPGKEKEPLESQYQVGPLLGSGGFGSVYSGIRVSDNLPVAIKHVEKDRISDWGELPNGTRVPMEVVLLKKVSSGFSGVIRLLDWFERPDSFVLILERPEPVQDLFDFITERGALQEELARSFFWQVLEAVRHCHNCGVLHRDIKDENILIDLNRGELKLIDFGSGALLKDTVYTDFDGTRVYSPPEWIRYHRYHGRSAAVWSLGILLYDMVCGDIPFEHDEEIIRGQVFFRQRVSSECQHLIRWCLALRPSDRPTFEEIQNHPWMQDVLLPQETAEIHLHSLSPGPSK

CCN1CCN(Cc2ccc(NC(=O)c3ccc(C)c(Oc4ccnc5[nH]ccc45)c3)cc2C(F)(F)F)CC1
residual activity (CLK2 (human); compound 0.1 µM): 115% | residual activity (CLK2 (human); compound 1.0 µM): 104% | residual activity (CLK2 (human); compound 10.0 µM): 75.8% | residual activity (RPS6KA3 KD1 KD2 (human); compound 0.1 µM): 94.8% | residual activity (RPS6KA3 KD1 KD2 (human); compound 1.0 µM): 93.8% | residual activity (RPS6KA3 KD1 KD2 (human); compound 10.0 µM): 76.3% | residual activity (PRKCA (human); compound 0.1 µM): 94% | residual activity (PRKCA (human); compound 1.0 µM): 84.4% | residual activity (PRKCA (human); compound 10.0 µM): 90.5% | residual activity (TAOK1 (human); compound 0.1 µM): 98.9% | residual activity (TAOK1 (human); compound 1.0 µM): 67.3% | residual activity (TAOK1 (human); compound 10.0 µM): 26.9% | residual activity (PIM1 (human); compound 0.1 µM): 120% | residual activity (PIM1 (human); compound 1.0 µM): 117% | residual activity (PIM1 (human); compound 10.0 µM): 87.4% | residual activity (MAPK15 (human); compound 0.1 µM): 106% | residual activity (MAPK15 (human); compound 10.0 µM): 44.6% | residual activity (TLK1 (human); compound 0.1 µM): 107% | residual activity (TLK1 (human); compound 1.0 µM): 92.2% | residual activity (TLK1 (human); compound 10.0 µM): 92.1% | residual activity (MAP2K2 (human); compound 0.1 µM): 131% | residual activity (MAP2K2 (human); compound 1.0 µM): 116% | residual activity (MAP2K2 (human); compound 10.0 µM): 96.8% | residual activity (CSK (human); compound 0.1 µM): 81.8% | residual activity (CSK (human); compound 1.0 µM): 15.4% | residual activity (CSK (human); compound 10.0 µM): 7.86% | residual activity (MAPKAPK3 (human); compound 0.1 µM): 90.1% | residual activity (MAPKAPK3 (human); compound 1.0 µM): 82.3% | residual activity (MAPKAPK3 (human); compound 10.0 µM): 96.7% | residual activity (PLK1 (human); compound 0.1 µM): 103% | residual activity (PLK1 (human); compound 1.0 µM): 91.6% | residual activity (PLK1 (human); compound 10.0 µM): 95% | residual activity (MARK4 (human); compound 0.1 µM): 116% | residual activity (MARK4 (human); compound 1.0 µM): 104% | residual activity (MARK4 (human); compound 10.0 µM): 88.7% | residual activity (AURKB (human); compound 0.1 µM): 116% | residual activity (AURKB (human); compound 1.0 µM): 108% | residual activity (AURKB (human); compound 10.0 µM): 118% | residual activity (YES1 (human); compound 0.1 µM): 52.9% | residual activity (YES1 (human); compound 1.0 µM): 9.77% | residual activity (YES1 (human); compound 10.0 µM): 10.6% | residual activity (PIM3 (human); compound 0.1 µM): 107% | residual activity (PIM3 (human); compound 1.0 µM): 108% | residual activity (PIM3 (human); compound 10.0 µM): 98.9% | residual activity (RPS6KA1 KD1 KD2 (human); compound 0.1 µM): 107% | residual activity (RPS6KA1 KD1 KD2 (human); compound 1.0 µM): 84.3% | residual activity (RPS6KA1 KD1 KD2 (human); compound 10.0 µM): 37.9% | residual activity (MAP3K1 (human); compound 0.1 µM): 127% | residual activity (MAP3K1 (human); compound 1.0 µM): 111% | residual activity (MAP3K1 (human); compound 10.0 µM): 108% | residual activity ([1]; compound 0.1 µM): 107% | residual activity ([1]; compound 1.0 µM): 63.6% | residual activity ([1]; compound 10.0 µM): 12.9% | residual activity (TEK (human); compound 0.1 µM): 95.2% | residual activity (TEK (human); compound 1.0 µM): 91.2% | residual activity (TEK (human); compound 10.0 µM): 60.4% | residual activity ([2]; compound 0.1 µM): 116% | residual activity ([2]; compound 1.0 µM): 100% | residual activity ([2]; compound 10.0 µM): 68.6% | residual activity (PHKG1 (human); compound 0.1 µM): 102% | residual activity (PHKG1 (human); compound 1.0 µM): 112% | residual activity (PHKG1 (human); compound 10.0 µM): 102% | residual activity (EPHB4 (human); compound 0.1 µM): 97.3% | residual activity (EPHB4 (human); compound 1.0 µM): 92.6% | residual activity (EPHB4 (human); compound 10.0 µM): 42.7% | residual activity (ZAP70 (human); compound 0.1 µM): 92.4% | residual activity (ZAP70 (human); compound 1.0 µM): 89.5% | residual activity (ZAP70 (human); compound 10.0 µM): 59.9% | residual activity (DYRK1A (human); compound 0.1 µM): 107% | residual activity (DYRK1A (human); compound 1.0 µM): 97.8% | residual activity (DYRK1A (human); compound 10.0 µM): 84.9% | residual activity (NEK6 (human); compound 0.1 µM): 104% | residual activity (NEK6 (human); compound 1.0 µM): 84.6% | residual activity (NEK6 (human); compound 10.0 µM): 73.5% | residual activity (MINK1 (human); compound 0.1 µM): 75.7% | residual activity (MINK1 (human); compound 1.0 µM): 11.4% | residual activity (MINK1 (human); compound 10.0 µM): 4.56% | residual activity (MAPK11 (human); compound 0.1 µM): 74.9% | residual activity (MAPK11 (human); compound 1.0 µM): 16.6% | residual activity (MAPK11 (human); compound 10.0 µM): 9.04% | residual activity (NEK2 (human); compound 0.1 µM): 112% | residual activity (NEK2 (human); compound 1.0 µM): 107% | residual activity (NEK2 (human); compound 10.0 µM): 93.4%
